Patent US20230015949A1, “NEISSERIA TREATMENT USING CANNABINOIDS” (priority 2019, published 2023)
Converted amounts (≈) assume the structure as drawn. Like-named read-outs stand apart in the source and are kept apart here.

Experiments:
[1] = tested on: Neisseria gonorrhoeae; experiment: Broth microdilution MIC assay, 30 isolates (Example 2); format: cell-based
Experimental: In this study, the in vitro spectrum of activity of CBD was determined against 30 isolates comprised of reference strains from the WHO, isolates from the CDC antibiotic resistance bank, and clinical isolates from the Micromyx (MMX) repository, with different resistance phenotypes. Assays were conducted following guidelines recommended by the Clinical and Laboratory Standards Institute (CLSI; 1, 2) with the exception that broth microdilution was used instead of agar dilution.
Stock solutions of all compounds were prepared on the day of testing using solvents recommended by CLSI. Stock solutions of all compounds were made at 101× the final testing concentration. CBD was supplied by Cerilliant (Round Rock, Tex.) as a 1 mg/mL methanolic solution which was stored at −20° C. after receipt. Prior to testing, using a 5 mL aliquot of the CBD methanolic solution, the methanol was dried off and the residual CBD was resuspended in 774 μL DMSO resulting in a 6.464 mg/mL solution.
The test organisms evaluated in this study consisted of Neisseria gonorrhoeae isolates from the Micromyx repository and reference isolates from the American Type Culture Collection (ATCC; Manassas, Va.), Centers for Disease Control and Prevention (CDC; Atlanta, Ga.) or the National Collection of Type Cultures (NCTC; Public Health England, Salisbury, UK). Upon initial receipt at Micromyx, the organisms were sub-cultured onto an appropriate agar medium.
(§1) Following incubation, colonies were harvested from these plates and cell suspensions prepared and frozen at −80° C. with a cryoprotectant. Prior to testing, N. gonorrhoeae isolates were streaked onto Chocolate Agar [Becton Dickinson, (BD), Sparks, Md.; Lot No. 922807]; Staphylococcus aureus ATCC 29213 tested for quality control (QC) purposes was streaked onto Trypticase Soy Agar with 5% Sheep Blood (TSA II; BD; Lot No. 9219399).
For N. gonorrhoeae, a modified medium described by the ATCC as capable of supporting the growth of N. gonorrhoeae (Neisseria peptone medium) was used for the broth microdilution MIC assay. This medium contained 15 g Oxoid Special Peptone (Lot No. 1280296; Oxoid, Hampshire, UK), 1 g corn starch (Lot No. AD-13344-14; Ward's Science; Rochester, N.Y.), 5 g NaCl (Lot No. 57897; VWR, Radnor, Pa.), 4 g K2HPO4 (Lot No. SLBT7061; Sigma), and 1 g KH2PO4 (Lot No. SLBC1921V; Sigma). After autoclaving, the medium was centrifuged at 5,000×g for 10 min, the supernatant was passed through a 0.45 μm filter, and IsoVitaleX supplement (Lot No. 8323954; BD) was added at 1% (v/v).
(§2) MIC values were determined using a broth microdilution procedure described by CLSI (1, 2). Automated liquid handlers (Multidrop 384, Labsystems, Helsinki, Finland; Biomek 2000 and Biomek FX, Beckman Coulter, Fullerton Calif.) were used to conduct serial dilutions and liquid transfers.
(§3) To prepare the drug mother plates, which would provide the serial drug dilutions for the replicate daughter plates, the wells of columns 2 through 12 of standard 96-well microdilution plates (Costar 3795) were filled with 150 μl of the designated diluent for each row of drug. The test articles and comparator compounds (300 μl at 100× the highest concentration to be tested) were dispensed into the appropriate wells in column 1. The Biomek 2000 was then used to make 2-fold serial dilutions in the mother plates from column 1 through column 11. The wells of column 12 contained no drug and served as the organism growth control wells for the assay.
(§4) The daughter plates were loaded with 190 μL per well of the appropriate test medium for the tested organism using the Multidrop 384. The daughter plates were completed on the Biomek FX instrument which transferred 2 μL of drug solution from each well of a mother plate to the corresponding well of each daughter plate in a single step. Daughter plates for the testing of anaerobes were allowed to pre-reduce in the Bactron II anaerobe chamber for 2 hr prior to inoculation.

[2] = tested on: Staphylococcus aureus ATCC 29213; experiment: Broth microdilution MIC assay, quality control strain (Example 2); format: cell-based; details: ATCC29213, S. aureus ATCC 29213 (QC), CAMHB
Experimental: as §1
Cation-adjusted Mueller Hinton broth (CAMHB; BD; Lot No. 9019592) was used for MIC testing of S. aureus ATCC 29213 for QC purposes.
as §2, §3, §4
A standardized inoculum of each test organism was prepared per CLSI methods (1, 2). The inoculum for each organism was dispensed into sterile reservoirs divided by length (Beckman Coulter), and the Biomek 2000 was used to inoculate the plates. Daughter plates were placed on the Biomek 2000 work surface in reverse orientation so that inoculation took place from low to high drug concentration. Anaerobic organisms were inoculated by hand in the Bactron II anaerobic chamber. Bacterial plates were then inoculated with 10 μL of the inoculum resulting in a final cell density of approximately 5×10^5 CFU/mL.
Plates were stacked 3 to 4 high, covered with a lid on the top plate and placed in plastic bags. […] The MIC was read and recorded as the lowest concentration of drug that inhibited visible growth of the organism.

[3] = 30 isolates of N. gonorrhoeae, broth microdilution
[4] = 30 isolates of N. gonorrhoeae, broth microdilution, MIC distribution
[5] = 30 isolates, broth dilution assay, MIC distribution (Table 6)

## CO/N=C(\C(=O)N[C@@H]1C(=O)N2C(C(=O)O)=C(CSc3nc(=O)c(=O)[nH]n3C)CS[C@H]12)c1csc(N)n1 [CRO, ceftriaxone]
[1]; [3]
  MIC50: ≤0.008 µg/mL
  MIC Range: ≤0.008 − 1 μg/mL
[1]; [4]
  Number of isolates at MIC value 0.015 μg/mL: 5
  Number of isolates at MIC value 0.03 μg/mL: 2
  Number of isolates at MIC value 0.06 μg/mL: 1
  Number of isolates at MIC value 0.5 μg/mL: 1
  Number of isolates at MIC value 1 μg/mL: 1
  Number of isolates at MIC value 2 μg/mL: 0
  Number of isolates at MIC value 4 μg/mL: 0
  Number of isolates at MIC value 8 μg/mL: 0
  Number of isolates at MIC value <0.008 μg/mL: 20
  Number of isolates at MIC value >8 μg/mL: 0
  Number of isolates at MIC value […]: 0
[1]; 30 isolates of N. gonorrhoeae, broth microdilution, listed as ceftriaxone
  MIC Range: ≤0.008 to 1 µg/mL
[1]; [5]
  Number of isolates at MIC 0.08 μg mL^−1: 0
  Number of isolates at MIC ≤0.004 μg mL^−1: 20
[1]; N. gonorrhoeae ATCC 49226 (QC), broth microdilution
  MIC: £0.008 μg/mL
[1]; Neisseria gonorrhoeae, ATCC49226, N. gonorrhoeae ATCC 49226 (QC), broth microdilution, read-out: MIC
  MIC: ≤ 0.008 µg/mL
[1]; Neisseria gonorrhoeae, N. gonorrhoeae CDC 0165 (CIP-R, AZI MIC 1), broth microdilution, read-out: MIC
  MIC: 0.015 µg/mL (≈ 0.027 µM)
[1]; Neisseria gonorrhoeae, N. gonorrhoeae CDC 0166 (CIP-R, AZI MIC 1), broth microdilution, read-out: MIC
  MIC: 0.015 µg/mL (≈ 0.027 µM)
[1]; Neisseria gonorrhoeae, N. gonorrhoeae CDC 0167 (CIP-S, AZI MIC 8), broth microdilution, read-out: MIC
  MIC: ≤ 0.008 µg/mL
[1]; Neisseria gonorrhoeae, N. gonorrhoeae CDC 0172 (CIP-R, AZI MIC 0.5), broth microdilution, read-out: MIC
  MIC: ≤ 0.008 µg/mL
[1]; Neisseria gonorrhoeae, N. gonorrhoeae CDC 0175 (CIP-S, AZI MIC 16), broth microdilution, read-out: MIC
  MIC: ≤ 0.008 µg/mL
[1]; Neisseria gonorrhoeae, N. gonorrhoeae CDC 0177 (CIP-S, AZI MIC 2), broth microdilution, read-out: MIC
  MIC: ≤ 0.008 µg/mL
[1]; Neisseria gonorrhoeae, N. gonorrhoeae CDC 0181 (CIP-S, AZI MIC 256), broth microdilution, read-out: MIC
  MIC: ≤ 0.008 µg/mL
[1]; Neisseria gonorrhoeae, N. gonorrhoeae CDC 0194 (CRO-NS, CIP-S, AZI MIC 0.5), broth microdilution, read-out: MIC
  MIC: 0.03 µg/mL (≈ 0.0541 µM)
[1]; Neisseria gonorrhoeae, N. gonorrhoeae MMX 6921 (CIP-R), broth microdilution, read-out: MIC
  MIC: ≤ 0.008 µg/mL
[1]; Neisseria gonorrhoeae, N. gonorrhoeae MMX 6938 (CIP-S), broth microdilution, read-out: MIC
  MIC: ≤ 0.008 µg/mL
[1]; Neisseria gonorrhoeae, N. gonorrhoeae MMX 10409 (CIP-R), broth microdilution, read-out: MIC
  MIC: 0.015 µg/mL (≈ 0.027 µM)
[1]; Neisseria gonorrhoeae, N. gonorrhoeae MMX 10410 (CIP-S), broth microdilution, read-out: MIC
  MIC: ≤ 0.008 µg/mL
[1]; Neisseria gonorrhoeae, N. gonorrhoeae MMX 10447 (CIP-S), broth microdilution, read-out: MIC
  MIC: ≤ 0.008 µg/mL
[1]; Neisseria gonorrhoeae, N. gonorrhoeae MMX 10450 (CIP-S), broth microdilution, read-out: MIC
  MIC: ≤ 0.008 µg/mL
[1]; Neisseria gonorrhoeae, N. gonorrhoeae MMX 10452 (CIP-R), broth microdilution, read-out: MIC
  MIC: ≤ 0.008 µg/mL
[1]; Neisseria gonorrhoeae, N. gonorrhoeae MMX 10454 (CIP-R), broth microdilution, read-out: MIC
  MIC: 0.015 µg/mL (≈ 0.027 µM)
[1]; Neisseria gonorrhoeae, NCTC13477, N. gonorrhoeae NCTC 13477 (WHO F; CIP-S, AZI MIC […]), broth microdilution, read-out: MIC
  MIC: ≤ 0.008 µg/mL
[1]; Neisseria gonorrhoeae, NCTC13478, N. gonorrhoeae NCTC 13478 (WHO G; CIP-I, AZI MIC […]), broth microdilution, read-out: MIC
  MIC: ≤ 0.008 µg/mL
[1]; Neisseria gonorrhoeae, NCTC13479, N. gonorrhoeae NCTC 13479 (WHO K; CIP-R, AZI MIC […]), broth microdilution, read-out: MIC
  MIC: 0.03 µg/mL (≈ 0.0541 µM)
[1]; Neisseria gonorrhoeae, NCTC13480, N. gonorrhoeae NCTC 13480 (WHO L; CIP-R, AZI MIC 0.5), broth microdilution, read-out: MIC
  MIC: 0.06 µg/mL (≈ 0.108 µM)
[1]; Neisseria gonorrhoeae, NCTC13481, N. gonorrhoeae NCTC 13481 (WHO M; CIP-R, AZI MIC […]), broth microdilution, read-out: MIC
  MIC: ≤ 0.008 µg/mL
[1]; Neisseria gonorrhoeae, NCTC13482, N. gonorrhoeae NCTC 13482 (WHO N; CIP-R, AZI MIC […]), broth microdilution, read-out: MIC
  MIC: ≤ 0.008 µg/mL
[1]; Neisseria gonorrhoeae, NCTC13483, N. gonorrhoeae NCTC 13483 (WHO O; CIP-S, AZI MIC […]), broth microdilution, read-out: MIC
  MIC: ≤ 0.008 µg/mL
[1]; Neisseria gonorrhoeae, NCTC13484, N. gonorrhoeae NCTC 13484 (WHO P; CIP-S, AZI MIC 4), broth microdilution, read-out: MIC
  MIC: ≤ 0.008 µg/mL
[1]; Neisseria gonorrhoeae, NCTC13817, N. gonorrhoeae NCTC 13817 (WHO U; CIP-S, AZI MIC 4), broth microdilution, read-out: MIC
  MIC: ≤ 0.008 µg/mL
[1]; Neisseria gonorrhoeae, NCTC13818, N. gonorrhoeae NCTC 13818 (WHO V; CIP-R, AZI MIC >256), broth microdilution, read-out: MIC
  MIC: ≤ 0.008 µg/mL
[1]; Neisseria gonorrhoeae, NCTC13819, N. gonorrhoeae NCTC 13819 (WHO W; CIP-R, AZI MIC 0.5), broth microdilution, read-out: MIC
  MIC: 0.015 µg/mL (≈ 0.027 µM)
[1]; Neisseria gonorrhoeae, NCTC13820, N. gonorrhoeae NCTC 13820 (WHO X; CRO-NS, CIP-R, AZI MIC 0.5), broth microdilution, read-out: MIC
  MIC: 1 µg/mL (≈ 1.8 µM)
[1]; Neisseria gonorrhoeae, NCTC13821, N. gonorrhoeae NCTC 13821 (WHO Y; CIP-R, AZI MIC 1), broth microdilution, read-out: MIC
  MIC: 0.5 µg/mL (≈ 0.902 µM)
[1]; Neisseria gonorrhoeae, 30 isolates of N. gonorrhoeae, broth microdilution, read-out: MIC50
  MIC50: ≤ 0.008 µg/mL
[1]; Neisseria gonorrhoeae, 30 isolates of N. gonorrhoeae, broth microdilution, read-out: MIC90
  MIC90: 0.03 µg/mL (≈ 0.0541 µM)
[1]; Neisseria gonorrhoeae, 30 isolates of N. gonorrhoeae, broth microdilution, read-out: MIC Mode
  MIC: ≤ 0.008 µg/mL
[2]
  MIC: 2 µg/mL (≈ 3.61 µM)
